# Tests used:
# HLA-DRB1*0401 = target: T1, HLA-DRB1*0401 (Homo sapiens, UniProt P01903+P01911, A100K/A169T/F76Y/I96L/K127E/L162R/M171V/N62H/P40V/Q125Y/R42H/S133A/S149N/S66Y/V115G/V209L/W38E); assay: HLA-DR4 peptide binding assay (competition with labelled HA peptide); settings: inhibition of labelled HA peptide (0.5 nM) binding to 40 nM purified DR4, 37 °C, 4 h
# T1 construct: Soluble DR4 molecules in the supernatant were collected and purified; made in house; host or cells: Drosophila S2 cells
# Source text: (§1) Figure 4 HLA-DR4 binding assay. (A) Binding activities between a HLA-DRB1*0401 and 0405 molecule and MycHSP70_287–306. Binding activities were estimated by the inhibition of peroxidase-labeled HA307–318 peptide binding to a HLA-DRB1 molecule. (B) Binding of MycHSP70_287–306 with alanine-substituted peptides to HLA-DRB1*0405 molecules. A MycHSP70_287–306-derived peptide in which an amino residue was substituted by an alanine residue. Inhibitory concentration 50% (IC50) was used as a measure of binding activity. *p < 0.05, **p < 0.01, ***p < 0.001.
# (§2) The procedure to assess peptide binding to HLA-DRB1*0401 and 0405 was described in a previous study. In brief, HLA-DRA1B1*0401 and 0405 was cloned and transfected into S2 Drosophila cells. Soluble DR4 molecules in the supernatant were collected and purified through an affinity column coupled with the anti-DR antibody LB3.1. In the peptide binding assay, a 40 nM solution of purified DR4 was incubated at 37 °C for 4 h with the HA307–319 peptide (0.5 nM), which had been labeled at the N terminus with biotin. The indicated concentrations of the peptides were added as competitors to HA peptide binding. […] Bound biotinylated peptides were detected by an incubation with streptavidin-alkaline phosphatase. An automatic microplate reader (Bio-rad 550, Bio-rad) was used to measure optical density.
# HLA-DRB1*0405 = target: T2, HLA-DRB1*0405 (Homo sapiens, UniProt P01903+P01911, A100R/A169T/D86S/F76Y/I96L/K127E/L162R/M171V/N62H/P40V/Q125Y/R42H/S133A/S149N/S66Y/V115G/V209L/W38E); assay: as above; settings: inhibition of labelled HA peptide (0.5 nM) binding to 40 nM purified DR4, 37 °C, 4 h
# T2 construct: Soluble DR4 molecules in the supernatant were collected and purified; made in house; host or cells: Drosophila S2 cells
# Source text: as §1, §2
# [1] = test system: collagen-induced arthritis in DBA/1 J mice; assay: Oral administration of peptide in collagen-induced arthritis (CIA); format: in vivo, mouse
# Experimental: Figure 6 Oral tolerance of MycHSP70_287–306 peptides in a collagen-induced arthritis model. (A,B) The MycHSP70_287–306 peptide or control (PBS alone) was orally administered to bovine type II collagen-immunized DBA/1 J mice after the occurrence of CIA for 5 continuous days (n = 12). Mice were sacrificed on day 35. Arthritis scores were measured by finger and paw swelling, and histological scores were measured by cell infiltration (C), pannus formation (P), and bone destruction (B). (C) Splenic CD4^+ T cell proliferation from CIA-induced DBA/1 J mice in response to a recall antigen (Ag) stimulation (MycHSP70_287–306 and BiP336–355 epitopes, and heat-denatured bovine type II collagen (BC II)). Proliferation was determined by[3]-H thymidine incorporation. (D) Serum anti-BiP and anti-BC II antibody titers were measured by ELISA. (E,F) Mouse IL-10 and TGF-beta1 concentrations in the splenic CD4^+ T cell culture were measured by ELISA. Data were representative of at least three independent trials. *p < 0.05, **p < 0.01, ***p < 0.001.
# Serum antibodies were measured by ELISA as previously reported. Briefly, 96-well plates (Thermo Fisher Scientific) were coated with 5 μg/mL of each antigen and dissolved in 0.1 M NaHCO3. Diluted samples (100x) were applied, followed by goat anti-human IgG-horseradish peroxidase (HRP) (5000:1,Vector) or goat anti-mouse IgG-HRP (5000:1, Life Technologies) detection antibodies and TMB solution (KPL) for development.
# CIA in the background of DBA/1 J female mice (SLC Japan) was performed and arthritis scores were acquired as previously described. In the therapeutic experiments, mice were administered 200 μg of MycHSP287–306 peptides orally for 5 continuous days following the onset of arthritis. Mice were sacrificed on day 35, and the CD4^+ T cell culture was performed as described above. Mouse cytokine concentrations in the supernatants were measured using a mouse IL-10 ELISA kit and mouse/human TGF-beta 1 ELISA kit (eBioscience) according to the manufacturer’s protocol. Tissue samples were embedded in paraffin wax after 10% formaldehyde fixation and decalcification. Sections were stained with hematoxylin and eosin. Synovial tissues were graded by mononuclear cell infiltration, pannus formation, and cartilage erosion, as described previously. All animal experiments were conducted in accordance with Institutional and National Guidelines, and the protocols were approved by the Ethical Committee on Animal Experiments of the University of Tokyo. […]
# Oral tolerance of MycHSP70287-306 peptides on collagen-induced arthritis (CIA) model. The experimental protocol was the same as Figure 6.
# (A)(B)Mouse IL-17 and IFN-gamma concentrations in the splenic CD4+ T cell culture was measured by ELISA (Mouse cytokine ELISA ready-set-go, eBioscience) according to the manufacture’s protocol. (C) The frequencies of splenic regulatory T cells in CIA (n=4, each). FACS analysis was performed by FACS Vantage (BD Bioscience). Cells were stained by anti-mouse CD4
# APC antibody, anti-mouse CD25 FITC antibody, FOXP3 staining was performed using anti-mouse Foxp3 PE antibody (eBioscience) by using […]
# [2] = CIA mice given peptide orally vs PBS, ELISA
sequence,measurement,setting,value
DRTRKPFQSVIADTGISVSE [MycHSP70_287–306],binding to HLA-DRB1*0401 molecule,HLA-DRB1*0401,bound
same,binding to HLA-DRB1*0405 molecule,HLA-DRB1*0405,bound
same,development of arthritis (arthritis scores),"[1]; 200 μg peptide orally for 5 continuous days after onset of arthritis, vs PBS, n = 12, sacrificed day 35",significantly improved
same,histological scores,"[1]; 200 μg peptide orally for 5 continuous days, cell infiltration, pannus formation, bone destruction, day 35",significantly improved
same,serum anti-BC II antibody titers,[1]; [2],significantly decreased
same,serum anti-BiP antibody titers,[1]; [2],significantly decreased
same,frequency of CD4+ CD25+ Foxp3+ regulatory T cells,"[1]; splenic, CIA mice given peptide orally vs PBS, n=4 each, FACS",increased

# — PMC4772543, “Immune responses to Mycobacterial heat shock protein 70 accompany self-reactivity to human BiP in rheumatoid arthritis” (Scientific Reports, 2016)
